This data set is described as follows: refractive index (Na D-line) (dimensionless). The note with it: 298.15 K; 101.33 kPa; Liquid; Abbe refractometer.

Numbers after ± are expanded uncertainties.

For `Cc1ccccc1C` [1,2-dimethylbenzene], the refractive index amounted to 1.5018 ± 0.0005.

As for `c1ccccc1` [benzene], the refractive index came out at 1.499 ± 0.0004.

In the case of `Cc1cccc(C)c1` [1,3-dimethylbenzene], the refractive index is 1.4943 ± 0.0005.

Take `CCCCCC` [hexane]: the refractive index turned out to be 1.3728 ± 0.0005.

Take `Cc1ccc(C)cc1` [1,4-dimethylbenzene]: the refractive index came out at 1.4925 ± 0.0005.

As for `CCCCCCCCCCCCCCCC` [hexadecane], the refractive index is 1.4325 ± 0.0005.

On to `Cc1ccccc1` [toluene], for which the refractive index is recorded as 1.494 ± 0.0004.

Regarding `CCCCCCCCCCCC` [dodecane], the refractive index came to 1.4275 ± 0.0005.

Usually refractive index stands for the speed of light in vacuum divided by its phase velocity in the sample.

Values taken from the NIST ThermoML archive (doi:10.1021/je010317u).
